We go through two compounds from patent US20040123348A1, “Method for producing a plant with a high-growth rate” (priority 2002, published 2004).

Molecules are shown by their SMILES.

Assay [1] deals with OsHDAC1 transcription product. The experiment in a line: Effect of ABA treatment on expression of OsHDAC1 transcription product in leaves of Ai::OsHDAC1 rice plant. Type of assay: cell-based. The conditions noted are these: 20 μM ABA, MS medium. On the procedure: While leaves of Ai::OsHDAC1 rice plant produced by above Example 5 was incubated in MS medium with or without 20 μM ABA, a total RNA was isolated from leaves at regular intervals to examine the expression level of OsHDAC1 transcription product. As the result, it was identified that the expression of the transcription product reaches at the maximum level one hour after ABA treatment and rapidly decreases after 6 hours. Then, callus cells, leaves and roots of rice plant were incubated in MS medium with or without 20 μM ABA for one hour, and a total RNA was extracted. […] Further, the same result could be confirmed from Western blot analysis of OsHDAC1 protein.

For the next assay, the system named is untransformed rice plant. The experiment in a line: Phenotype and growth in MS medium with 20 μM ABA, untransformed rice plant. It counts as in vivo. The conditions noted are these: 2 weeks. On the procedure:
(§1) In order to investigate the effect of overexpression of OsHDAC1 on the phenotype and growth of Ai::OsHDAC1 rice plant, Ai::OsHDAC1 rice plant was incubated as the first generation and then, young seedlings or calluses at the second generation were transferred to MS medium with or without 20 μM ABA and incubated for 2 weeks. After incubation, the whole shape of rice plant, and leaves, collars and roots were observed. As the control group, untransformed rice plant was also observed. FIGS. 6a, 6b, 6c and 6d are photographs showing the growth and morphological change of Ai::OsHDAC1 rice plant, the change in the growth of leaves, the change of collars and the change of roots, respectively. In each drawing, NT denotes untransformed rice plant and lanes 2, 3 and 4 in FIGS. 6b, 6c and 6d denote respective individuals of transformed Ai::OsHDAC1 rice plant.

For another assay, the system named is Ai::OsHDAC1 rice plant. The assay can be described thus: Phenotype and growth in MS medium with 20 μM ABA, Ai::OsHDAC1 rice plant. The conditions noted are these: 2 weeks. Type of assay: in vivo. On the procedure: as §1
Another assay concerns histone deacetylase. The assay can be described thus: Effect of tricostatin A (TSA) treatment on histone H4 acetylation, immunoblot of rice callus cells. It counts as cell-based. The conditions noted are these: 1 μM TSA with 20 μM ABA, 1 to 6 hours. On the procedure: Rice callus cells, leaves and roots were incubated in MS medium with (+) or without (−) 20 μM ABA for one hour, transferred to MS medium containing 20 μM ABA and 1 μM TSA, incubated for 1 to 6 hours and then subjected to TSA treatment. Next, about 0.1 g of rice tissues was pulverized, homogenized with a buffer solution containing 50 mM Tris-HCl (pH 8.0), 150 mM NaCl, 10% glycerol, 0.5% Triton X-100, 2 mM phenylmethanesulfonyl fluoride, 1 μg/ml aprotinine, 1 μg/ml pepstatin and 1 μg/ml leupeptin, and then incubated at 4° C. for one hour. After incubation, the mixed solution was centrifuged at 4° C. for 5 minutes, and the protein concentration was determined using Bradford solution (BioRad, USA). The protein extract was separated from 12% SDS gel, transferred to polyvinylidene difluoride (PVDF) membrane (Immobilon-P, Millipore), and then reacted with mouse HDAC1 (mHDAC1), histone H4 (H4), acetylated histone (AcH4), the secondary antibody wherein primary antibody to acetylated histone H4 (AcH4) (Upstate Biotechnology, USA) is combined with alkaline phosphatase. […] Thus, it was confirmed that the expression of tetra-acetylated histone H4 as reduced in Ai::OsHDAC1 rice plant is increased again by TSA treatment.
On the technique in general: A western blot detects proteins with antibodies after separation by electrophoresis.

Turning to `CC1=CC(=O)CC(C)(C)[C@@]1(O)/C=C/C(C)=C\C(=O)O` [ABA, abscisic acid], the “time after ABA treatment at which expression of the transcription product reaches the maximum level” value in assay [1] is “one”. Besides, in the assay with untransformed rice plant, the “growth of untransformed plant in the presence of ABA” value was “inhibition of growth”. For the same compound, the “growth of Ai::OsHDAC1 rice plant in the presence of ABA” value in the assay with Ai::OsHDAC1 rice plant is given as “increase of growth”.

For `CC(/C=C/C(=O)NO)=C\[C@@H](C)C(=O)c1ccc(N(C)C)cc1` [TSA, tricostatin A], in the assay on histone deacetylase, the “total H4 after TSA treatment” value is recorded as “substantially not changed”. Also, the “expression level of tetra-acetylated histone H4 after TSA treatment” value in the assay with histone deacetylase (both Ai::OsHDAC1 and untransformed rice plant callus cells) is on record as “greatly increased”.
